Experimental data as given in patent publication US5747530A, “Aromatic dibenzofuran compounds and pharmaceutical/cosmetic compositions comprised thereof” (Centre International de Recherches Dermatologiques Galderma, priority 1994, dated 1998).

Tests used:
RAR α = molecular target: T1, RAR α (Homo sapiens, UniProt P10276); test: Affinity for RAR α receptor (Kd); format: binding; conditions: read-out: Affinities for receptors Kd, RAR α
T1 sequence (P10276 1-462): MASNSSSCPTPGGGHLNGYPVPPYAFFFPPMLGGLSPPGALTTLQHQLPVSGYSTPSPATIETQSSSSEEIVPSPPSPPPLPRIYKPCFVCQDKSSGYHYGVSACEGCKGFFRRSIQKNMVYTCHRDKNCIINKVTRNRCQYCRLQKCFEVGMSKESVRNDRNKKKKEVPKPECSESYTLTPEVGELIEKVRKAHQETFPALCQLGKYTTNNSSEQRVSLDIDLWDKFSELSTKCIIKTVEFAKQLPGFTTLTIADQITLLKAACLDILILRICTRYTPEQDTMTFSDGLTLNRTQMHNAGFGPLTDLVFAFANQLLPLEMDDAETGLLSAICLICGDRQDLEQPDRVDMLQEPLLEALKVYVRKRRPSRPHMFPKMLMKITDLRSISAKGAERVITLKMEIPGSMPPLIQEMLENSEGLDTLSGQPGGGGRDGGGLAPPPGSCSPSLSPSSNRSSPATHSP
Procedure: (§1) Biological activities of certain compounds described and exemplified above:
(§2) ^(a) The affinites for the RARs were determined under the conditions
(§3) described in B. Martin et al, "Selective Synthetic Ligands for Human
(§4) Nuclear Retinoic Acid Receptors," Skin Pharmacol., 5, 57-65 (1992).

RAR β = molecular target: T2, RAR β (Homo sapiens, UniProt P10826); test: Affinity for RAR β receptor (Kd); format: binding; conditions: read-out: Affinities for receptors Kd, RAR β
T2 sequence (P10826 1-448 isoform P10826-2): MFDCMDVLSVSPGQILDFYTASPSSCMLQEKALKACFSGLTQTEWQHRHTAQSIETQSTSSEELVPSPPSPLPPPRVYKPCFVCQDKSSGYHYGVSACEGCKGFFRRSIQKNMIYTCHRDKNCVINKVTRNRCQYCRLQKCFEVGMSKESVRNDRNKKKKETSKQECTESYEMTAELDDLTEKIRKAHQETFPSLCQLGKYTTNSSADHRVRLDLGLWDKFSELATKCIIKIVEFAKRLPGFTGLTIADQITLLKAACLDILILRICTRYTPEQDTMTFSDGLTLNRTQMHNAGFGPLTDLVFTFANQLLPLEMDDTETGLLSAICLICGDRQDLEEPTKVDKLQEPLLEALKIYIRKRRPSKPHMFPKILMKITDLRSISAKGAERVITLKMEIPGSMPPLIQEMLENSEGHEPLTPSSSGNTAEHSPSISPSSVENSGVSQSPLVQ
Procedure: as §1, §2, §3, §4

RAR γ = molecular target: T3, RAR γ (Homo sapiens, UniProt P13631); test: Affinity for RAR γ receptor (Kd); format: binding; conditions: read-out: Affinities for receptors Kd, RAR γ
T3 sequence (P13631 1-454): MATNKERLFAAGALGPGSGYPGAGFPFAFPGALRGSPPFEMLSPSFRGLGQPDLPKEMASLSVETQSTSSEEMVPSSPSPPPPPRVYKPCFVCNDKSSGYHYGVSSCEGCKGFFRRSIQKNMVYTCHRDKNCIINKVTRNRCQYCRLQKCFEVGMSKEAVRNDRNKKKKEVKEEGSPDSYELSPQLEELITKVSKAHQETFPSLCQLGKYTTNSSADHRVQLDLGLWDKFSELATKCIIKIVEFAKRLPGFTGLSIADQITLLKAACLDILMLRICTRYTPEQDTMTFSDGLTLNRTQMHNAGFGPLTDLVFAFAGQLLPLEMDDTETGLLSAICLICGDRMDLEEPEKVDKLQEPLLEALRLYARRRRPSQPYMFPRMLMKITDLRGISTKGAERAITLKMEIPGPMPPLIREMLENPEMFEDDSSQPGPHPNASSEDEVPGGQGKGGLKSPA
Procedure: as §1, §2, §3, §4

F9 cells [1] = test: Antagonist activity with respect to the differentiation of F9 cells; format: cell-based; conditions: Mus musculus; coincubation with reference agonist (F9 AC50 = 4nM)
Procedure: Their activities may also be measured in tests of cellular transactivation using previously transfected recombinant RAR or RXR receptors (B. A. Bernard et al, Biochemical and Biophysical Research Communications, vol. 186, pp. 977-983 (1992)); M. F. Boehm et al, Journal of Medicinal Chemistry, p37, pp. 408-414 (1994)).
^(b) The antagonist activity was determined by coincubating a
[N(4-carboxybenzyl)-5,6,7,8-tetrahydro-5,5,8,8-tetramethyl-2-naphthylamin
(F9 AC50 = 4nM)] and different concentrations of the test retinoid.
These experiments were carried out under conditions for the determination
of activity with respect to the differentiation of F9 cells according to
the technique described in M. Darmon, M. Rocher, M. T. Cavey, B. Martin,
T. Rabilloud, C. Delescluse and B. Shroot, "Biological activity of
retinoids correlates with affinity for nuclear receptors, but not for
cytosolic binding protein," Skin Pharmacol., 1, 161-175 (1988).

F9 cells [2] = test: Agonist activity, differentiation of F9 cells; format: cell-based; conditions: Mus musculus, reference agonist

**Q.** With `CC12CCC(C1)C1(C)Oc3ccc(CCOc4ccc(C(=O)O)c(O)c4)cc3C21C` (stereo not drawn) [Example 17, 4-[2-(1,2,3,4-tetrahydro-1,4a,9b-trimethyl-1,4-methanodibenzofuran-8-yl)ethoxy]-2-hydroxybenzoic acid] as the compound, how does the Kd (RAR α) read?
**A.** Its Kd is > 10000 nM.

**Q.** What about the Kd (RAR β) of the same compound?
**A.** Its Kd is 315 nM.

**Q.** What about the Kd (RAR γ) of the same compound?
**A.** The Kd was 2250 nM.

**Q.** What about the IC50 (F9 cells [1]) of the same compound?
**A.** The IC50 was 270 nM.

**Q.** With `CC12CCC(C1)C1(C)Oc3ccc(C(=O)/C=C/c4ccc(C(=O)O)cc4)cc3C21C` (single isomer, unassigned) [Example 23, 4-[(E)-3-(1,2,3,4-Tetrahydro-1,4a,9b-trimethyl-1,4-methanodibenzofuran-8-yl)-3-oxo-1-propenyl]benzoic acid] as the compound, how does the Kd (RAR α) read?
**A.** The Kd was 220 nM.

**Q.** What about the Kd (RAR β) of the same compound?
**A.** Its Kd is 53 nM.

**Q.** What about the Kd (RAR γ) of the same compound?
**A.** The Kd was 27 nM.

**Q.** What about the IC50 (F9 cells [1]) of the same compound?
**A.** The IC50 was 19 nM.

**Q.** With `CC12CCC(C1)C1(C)Oc3ccc(C(O)COc4ccc(C(=O)O)cc4)cc3C21C` (stereo not drawn) [Example 13, 4-[2-(1,2,3,4-tetrahydro-1,4a,9b-trimethyl-1,4-methanodibenzofuran-8-yl)-2-hydroxyethoxy]benzoic acid] as the compound, how does the Kd (RAR α) read?
**A.** Its Kd is > 3200 nM.

**Q.** And the Kd (RAR β)?
**A.** Its Kd is 230 nM.

**Q.** And the Kd (RAR γ)?
**A.** Its Kd is 40 nM.

**Q.** What about the IC50 (F9 cells [1]) of the same compound?
**A.** The IC50 was 36 nM.

**Q.** Which AC50 (F9 cells [2]) does the source give for `CC1(C)CCC(C)(C)c2cc(NCc3ccc(C(=O)O)cc3)ccc21` [N(4-carboxybenzyl)-5,6,7,8-tetrahydro-5,5,8,8-tetramethyl-2-naphthylamin] here?
**A.** Its AC50 is 4 nM.

**Q.** For `CC12CCC(C1)C1(C)Oc3ccc(C(=O)COc4ccc(C(=O)O)cc4)cc3C21C` (stereo not drawn) [Example 12, 4-[2-(1,2,3,4-tetrahydro-1,4a,9b-trimethyl-1,4-methanodibenzofuran-8-yl)-2-oxoethoxy]benzoic acid], which Kd (RAR α) is on record?
**A.** Its Kd is 3200 nM.

**Q.** And the Kd (RAR β)?
**A.** The Kd was 745 nM.

**Q.** What about the Kd (RAR γ) of the same compound?
**A.** The Kd was 481 nM.

**Q.** What about the IC50 (F9 cells [1]) of the same compound?
**A.** The IC50 was 40 nM.

**Q.** Which Kd (RAR α) does the source give for `CC12CCC(C1)C1(C)Oc3ccc(C(=O)COc4ccc(C(=O)O)c(O)c4)cc3C21C` (stereo not drawn) [Example 15, 4-[2-(1,2,3,4-tetrahydro-1,4a,9b-trimethyl-1,4-methanodibenzofuran-8-yl)-2-oxoethoxy]-2-hydroxybenzoic acid] here?
**A.** Its Kd is 2500 nM.

**Q.** And the Kd (RAR β)?
**A.** The Kd was 114 nM.

**Q.** What about the Kd (RAR γ) of the same compound?
**A.** The Kd was 150 nM.

**Q.** And the IC50 (F9 cells [1])?
**A.** Its IC50 is 55 nM.
